Converted amounts (≈) assume the structure as drawn. Bounds are passed on as bounds.

Data on one compound can be found in US6054478A, “Antifungal sordaridin derivatives” (Glaxo Wellcome S.A., priority 1994, dated 2000).

The subject of one series is C. albicans 4711E. Description: in vivo protection of mice infected with C. albicans. Also noted: species or system Candida albicans; male mice. Particulars: 50 mg/kg sc. The source says: The in vivo evaluation of compounds of formula (I) can be carried out at a series of dose levels by administration (e.g. subcutaneously, orally, intraperitoneally or intravenously) to mice or rats inoculated with a strain of Candida albicans. Untreated animals die within 3 to 9 days and the dose level at which the test compound provides 50% protection against the lethal effect of the infection is noted.
(§1) The compounds of the invention are essentially non-toxic at therapeutically useful levels.

Series [1] is described as follows: adverse effects in treated mice. The series is classed as in vivo, male mice. The note with it: 50 mg/kg sc.
From the text: as §1

Another series relates to C. psuedotropicalis 371E. Description: in vitro antifungal MIC, two-fold serial dilution. It counts as cell-based, Candida pseudotropicalis. The note with it: Kluyveromyces marxianus, 24 to 48 hours at 37° C. How it is done: (§2) The in vitro evaluation of the anti-fungal activity of compounds of the invention was performed on liquid or solid medium by the anti-fungal two-fold serial dilution technique of determining the minimum inhibitory concentration (MIC) of anti-fungal agent that inhibited development of growth after 24 to 48 hours of incubation at 37° C. In practice, a series of agar plates or broth microdilution panels containing two-fold dilutions of anti-fungal agent tested were inoculated with a standard culture of a clinically relevant pathogen, for example, candida albicans. The agar plates or broth microdulution panels were then examined for the presence or absence of growth of the fungus and the appropriate MIC values were noted. Compounds of formula (I) have been tested for anti fungal activity in a standard in vitro screen and the minimum inhibiting concentration (MIC; μg/ml) determined for each compound against a variety of clinically relevant pathogens.

A further series concerns C. albicans 2005E. Description: in vitro antifungal MIC, two-fold serial dilution. It counts as cell-based. The note with it: Candida albicans, 24 to 48 hours at 37° C. As to the method: as §2
In a further series the test system is C. glabrata 2376E. Description: in vitro antifungal MIC, two-fold serial dilution. It counts as cell-based. The note with it: Nakaseomyces glabratus, 24 to 48 hours at 37° C. How it is done:
as §2

For the next series, the system named is C. tropicalis 2808E. The series is described as follows: in vitro antifungal MIC, two-fold serial dilution. It counts as cell-based. Particulars: Candida tropicalis, 24 to 48 hours at 37° C. How it is done:
as §2

The next series concerns C. neoformans 2867E. The series is described as follows: in vitro antifungal MIC, two-fold serial dilution. It counts as cell-based. The note with it: Cryptococcus neoformans, 24 to 48 hours at 37° C. As to the method:
as §2

Another series has as its system C. albicans 4711. The series is described as follows: in vitro antifungal MIC, two-fold serial dilution. The series is classed as cell-based. Particulars: Candida albicans, 24 to 48 hours at 37° C. As to the method: as §2
The subject of the next series is C. albicans 1208E. The series is described as follows: in vitro antifungal MIC, two-fold serial dilution. It counts as cell-based. The note with it: Candida albicans, 24 to 48 hours at 37° C. How it is done: as §2
The test system of the next series is C. glabrata 2375E. The series is described as follows: in vitro antifungal MIC, two-fold serial dilution. The series is classed as cell-based. Particulars: Nakaseomyces glabratus, 24 to 48 hours at 37° C. As to the method: as §2
In another series the test system is C. albicans 2402E. The series is described as follows: in vitro antifungal MIC, two-fold serial dilution. The series is classed as cell-based. Particulars: Candida albicans, 24 to 48 hours at 37° C. How it is done: as §2

The MIC is the least concentration at which growth counts as inhibited. Read a low MIC as inhibition by little substance. As for `CCCOC1CC(OCC23CC4C(C)CCC4C4(C=O)CC2C=C(C(C)C)C43C(=O)O)OC(C)C1OC` [Example 7, [1R-(1α, 3aβ, 4β, 4aβ, 7β, 7aα, 8aβ)] 8a-[(2,6-Dideoxy-4-O-3-O-propyl-β-D-alopyranosyloxy)methyl]-4-formyl-4,4a,5,6,7,7a,8,8a-octahydro-7-methyl-3-(1-methylethyl)-1,4-methano-s-indacene-3a(1H)-carboxylic acid], the “protection of male mice infected with C. albicans 4711E” value in the series on C. albicans 4711E is “active in protecting male mice”. The “adverse effects in the treated mice” value in series [1] was “no adverse effects were observed”. The MIC against C. psuedotropicalis 371E is 4 ng/mL (≈ 0.00771 µM); against C. albicans 2005E it was not above 1 ng/mL; against C. glabrata 2376E, 8000 ng/mL (≈ 15.4 µM); in the series with C. tropicalis 2808E it was 3 ng/mL (≈ 0.00578 µM); against C. neoformans 2867E, 125000 ng/mL (≈ 241 µM); with C. albicans 4711, 4 ng/mL (≈ 0.00771 µM). Moreover, the figures for the MIC with C. albicans 1208E, in the series on C. glabrata 2375E and against C. albicans 2402E were 15 ng/mL (≈ 0.0289 µM), 8000 ng/mL (≈ 15.4 µM) and 8 ng/mL (≈ 0.0154 µM), respectively.
